Where only a bound is given, the exact number is not on record here.

Series [1] relates to Streptococcus agalactiae JCM5671. Kind of series: MIC by broth microdilution assay. Type of series: cell-based. Conditions: MHB with 2.5% lysed horse blood, 24 h, median of three experiments. As to the method: Antimicrobial activity was assessed by determining the MIC by broth dilution assay according to our previous reports[21],[35],[36] as per the Clinical and Laboratory Standards Institute[37]. Briefly, serial dilutions of compound 5, compound 7, and positive controls were prepared in cation-adjusted Mueller-Hinton Broth (MHB, Difco, Franklin Lakes, NJ, USA), 100 µl of which was dispensed into each well of a round-bottomed 96-well plate. The final concentrations in the well ranged from 128 µg/ml to 0.0625 µg/ml. Bacteria were grown at 37 °C overnight on either Luria Bertani (tryptone 10 g/l, yeast extract 5 g/l, NaCl 10 g/l) or Tryptic Soy Broth (TSB, Difco) agar plates or sheep blood agar plates (Eiken Chemical Co. Ltd., Tokyo, Japan). Bacterial inoculum was prepared by direct suspension of the colonies in 0.9% saline, and adjusted to obtain a turbidity equivalent to a 0.5 McFarland standard using a spectrophotometer UV-1280 (Shimadzu Corp., Kyoto, Japan). The suspension was then diluted 1:20 in cation-adjusted MHB (Difco), and 10 µl of it was inoculated into each well of previously prepared 96-well plates containing compounds to […] […] Vancomycin (Wako Pure Chemicals) or norfloxacin (Sigma Aldrich, St Louis, MO, USA) were used as positive controls. Each plate contained a growth control well and a vehicle control well. The MIC was determined as the minimum concentration that inhibited the growth of the bacteria.

Series [2] can be described thus: Metabolism in pooled human liver S9 fractions. Type of series: in vitro ADME. Conditions: 40 µg/ml compound; pooled human liver S9, NADPH, 37 °C; 10, 20, 30 min; HPLC. As to the method: Metabolism of the compounds was determined according to Yang et al.[38] with slight modifications. Briefly, reaction mixture containing 5 mM MgCl2, 2 mM NADPH, 20 µg/ml pooled human liver S9 fractions (Sekisui Xenotech, KS, USA) in 0.05 M Tris-HCl buffer (pH 7.4) was pre-incubated at 37 °C for 5 min. The reaction was initiated by the addition of 40 µg/ml compound 5 or compound 7 and incubation was continued. Aliquots (100 µl) were collected at 10, 20, and 30 min, and an equal volume of acetonitrile was added. The resulting mixture was analyzed by HPLC equipped with a Waters 2998 Photodiode Array Detector and a Waters 2707 Autosampler using a Senshu-Pak Pegasil ODS-SP-100 column (4.6 Ø × 250 mm) with gradient elution of 50–100% acetonitrile for 30 min at the flow rate of 1 ml/min. Statistical analysis was performed using Prism 5 for Mac OS X, version 5.0 f (GraphPad Software).

As to `O=C(OCc1cc(Cl)cc(Cl)c1)c1ccc([N+](=O)[O-])s1` [compound 5], the MIC in series [1] was over 128 µg/mL. Also, the “metabolism by human liver S9 fractions” value in series [2] is listed as “slowly metabolized compared with compound 7”.

In the case of `O=C(OCc1ccccc1)c1ccc([N+](=O)[O-])s1` [compound 7], in series [1], the MIC was over 128 µg/mL.

These data come from article PMC5785531, “Pharmacokinetic parameters explain the therapeutic activity of antimicrobial agents in a silkworm infection model” (Scientific Reports, 2018).
